Experiment [1] addresses T1, CDK5/p35 (Homo sapiens, UniProt Q00535).
T1 construct: purchased Eurofins Cerep SA (contract assay service)
The experiment is described as follows: Kinase selectivity screen (enzymatic radioactive assay, Eurofins Cerep). The conditions noted are these: 1.0 μM compound, Km ATP. The format is biochemical. From the text: (§1) The potent GSK-3β inhibitor 16b was next subjected to kinase selectivity assay. A panel of kinases which were structurally related to GSK-3β was used for the GSK-3β selectivity studies[26]^,[37]^,[38]. […] GSK-3α and GSK-3β are known to share a 98% sequence homology at the catalytic site[42]. CDK5 and GSK-3 belong to the CMGC protein kinase family, which shared highly homology with each other[43]^,[44]. CDK5 is known abnormally activated and also responsible for the tau hyperphosphorylation in AD[45]. It was known that Aβ could increase CK2 activity, which in turn accelerated the tau phosphorylation in AD[46]. Therefore, the inhibition of CDK5 and CK2 by 16b may be beneficial for its anti-AD activities.
(§2) Figure 3. Effects of compound 16b on the activities of 21 protein kinases in vitro. Protein kinases were of human origin and assayed in the presence of 1.0 μM compound 16b or vehicle (DMSO). The enzymatic activity was measured in the presence of Km ATP. Kinase activities were given as the mean of twice determinations. AMPKα1, AMP-activated protein kinase 1; AMPKα2, AMP-activated protein kinase 2; CDK4/cyclinD3, cyclin-dependent protein kinase-4/cyclinD3; CDK5/p35, cyclin-dependent protein kinase-5/p35; CHK1, checkpoint kinase-1; CK2, casein kinase-2; Lck, lymphocyte kinase; MSK1, mitogen- and stress-activated protein kinase-1; p70S6K, p70 ribosomal protein S6 kinase; PDK1, 3-phosphoinositide-dependent protein kinase-1; PKA, cAMP-dependent protein kinase; PKBα, protein kinase Bα; PKCα, protein kinase Cα; PRAK, p38-regulated/activated kinase; SAPK2a, stress-activated protein kinase-2a; SAPK2b, stress-activated protein kinase-2b; SAPK3, stress-activated protein kinase-3; SAPK4, stress-activated protein kinase-4; SGK, serum- and glucocorticoid-induced protein kinase.
(§3) Compound 16b was evaluated for kinase selectivity at Eurofins Cerep SA (Celle-L’Evescault, France) in enzymatic radioactive assays in a panel of 21 different kinases (including GSK-3β) from diverse families. […] The enzymatic activity was measured in the presence of Km ATP.

Experiment [2] addresses T2, GSK-3α (Homo sapiens, UniProt P49840).
T2 construct: purchased Eurofins Cerep SA (contract assay service)
Described as above. Format: biochemical. Particulars: 1.0 μM compound, Km ATP.
Excerpt: as §1, §2, §3

Experiment [3] has as its target T3, CK2 (Homo sapiens, UniProt P68400).
T3 construct: purchased Eurofins Cerep SA (contract assay service)
The description is as above. Format: biochemical. Particulars: 1.0 μM compound, Km ATP.
Excerpt: as §1, §2, §3

The test system of experiment [4] is β-catenin. The experiment is described as follows: Western blot of β-catenin abundance in SH-SY5Y cells. The conditions noted are these: 2.5 h, control 0.41. Format: cell-based, human. The text has this: Figure 6. (A) The effect of 16b on phosphorylation of GSK-3β at Ser9; (B) the effect of 16b on β-catenin abundance. Protein expressions were detected by immunoblot analysis with a specific antibody. Values are reported as the mean ± SD of three independent experiments. *p < 0.05, **p < 0.01, ***p < 0.001 vs control.
GSK-3β is implicated in the Wnt/β-catenin signalling pathway, which plays an important role in neuronal development. GSK-3β, together with adenomatous polyposis coli (APC), Axin, and casein kinase 1 (CK1), form a ploy-protein complex that regulates the hyperphosphorylation of β-catenin. Phospho-β-catenin is recognised by ubiquitin and degraded by proteasomes. Pharmacological inhibition of GSK-3β leads to the activation and stabilisation of β-catenin, subsequently resulting in the accumulation of β-catenin in cytoplasm. The activation of Wnt/β-catenin signalling pathway can promote synaptic growth, alleviate spatial memory impairment and neurodegeneration in Alzheimer’s models. Moreover, β-catenin also plays a pivotal role in cell adhesion complexes. The combination of β-catenin and N-cadherin elevates cell-to-cell interactions which is prerequisite for neuronal differentiation[61]^,[62]. Therefore, we further evaluated the effect of 16b on β-catenin. In agreement with its GSK-3β inhibitory activity on SH-SY5Y cells, 16b increased β-catenin abundance in a dose-dependent manner. […]
SH-SY5Y cells (1 × 10^6) were seeded in 12-well plates (Corning, Los Altos, MA, USA) and incubated with compound 16b or LiCl at the indicated concentrations for 2.5 h at 37 °C in 5% CO2. […] The protein quantification was determined using a BCA protein assay kit (Jiangsu KeyGEN BioTECH Co., Ltd., Nanjing, China). […] The blots were washed by TBST for 20 min and detected with ECL chemiluminescent reagent (Jiangsu KeyGEN BioTECH Co., Ltd., Nanjing, China) for 3 min. Pixel intensity was quantitated using gel imaging system (SYNGENE G:BOX/iChemi XR5, ISS, San Diego, CA, US) and Gel-Pro32 software (Media Cybernetics, Bethesda, MD, USA). […]
Background: Immunoblotting shows a protein as a band on a membrane.

T1 sequence (Q00535 whole entry): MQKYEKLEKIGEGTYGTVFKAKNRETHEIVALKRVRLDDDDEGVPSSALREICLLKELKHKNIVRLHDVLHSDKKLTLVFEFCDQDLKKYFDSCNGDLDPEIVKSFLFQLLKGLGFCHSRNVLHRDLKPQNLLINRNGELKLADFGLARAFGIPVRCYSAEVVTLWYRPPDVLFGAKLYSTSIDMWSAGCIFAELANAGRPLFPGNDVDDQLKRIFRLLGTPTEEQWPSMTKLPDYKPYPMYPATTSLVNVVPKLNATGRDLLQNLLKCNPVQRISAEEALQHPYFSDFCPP
T1 sequence (Q15078 whole entry partner): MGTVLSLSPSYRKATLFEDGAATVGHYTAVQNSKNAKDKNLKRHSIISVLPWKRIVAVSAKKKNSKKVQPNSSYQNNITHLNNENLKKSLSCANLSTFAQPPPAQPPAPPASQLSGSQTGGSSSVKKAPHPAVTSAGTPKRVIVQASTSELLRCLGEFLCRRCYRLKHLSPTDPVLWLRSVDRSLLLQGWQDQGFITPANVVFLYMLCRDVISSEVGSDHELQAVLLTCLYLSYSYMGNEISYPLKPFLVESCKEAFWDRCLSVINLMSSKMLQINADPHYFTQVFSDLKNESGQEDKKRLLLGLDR
T2 sequence (P49840 whole entry): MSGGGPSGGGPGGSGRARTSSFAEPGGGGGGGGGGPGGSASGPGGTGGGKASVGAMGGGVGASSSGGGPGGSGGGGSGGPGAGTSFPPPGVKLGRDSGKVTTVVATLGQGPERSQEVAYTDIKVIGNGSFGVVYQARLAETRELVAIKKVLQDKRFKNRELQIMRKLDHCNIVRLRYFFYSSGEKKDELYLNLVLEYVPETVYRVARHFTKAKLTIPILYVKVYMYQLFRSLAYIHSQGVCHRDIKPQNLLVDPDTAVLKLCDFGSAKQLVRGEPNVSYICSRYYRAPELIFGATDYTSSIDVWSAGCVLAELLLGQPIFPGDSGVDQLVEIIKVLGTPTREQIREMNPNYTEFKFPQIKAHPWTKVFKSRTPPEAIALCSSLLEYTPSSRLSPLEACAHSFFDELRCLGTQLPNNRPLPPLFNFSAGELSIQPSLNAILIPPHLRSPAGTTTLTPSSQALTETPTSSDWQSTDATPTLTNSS
T3 sequence (P68400 whole entry): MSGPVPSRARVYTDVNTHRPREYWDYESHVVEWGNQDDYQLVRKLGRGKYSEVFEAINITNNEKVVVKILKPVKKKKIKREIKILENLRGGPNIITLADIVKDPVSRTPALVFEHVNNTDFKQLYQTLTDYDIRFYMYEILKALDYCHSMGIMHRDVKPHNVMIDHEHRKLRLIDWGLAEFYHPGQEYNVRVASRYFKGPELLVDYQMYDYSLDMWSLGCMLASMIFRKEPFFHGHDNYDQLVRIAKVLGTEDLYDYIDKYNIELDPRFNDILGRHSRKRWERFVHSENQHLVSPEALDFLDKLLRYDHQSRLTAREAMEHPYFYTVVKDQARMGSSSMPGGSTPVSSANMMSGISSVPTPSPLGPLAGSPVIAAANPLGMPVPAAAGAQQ

Regarding `CC(C)C(=O)Nc1n[nH]c2cc(-c3cccnc3)sc12` [Compound 16b, N-(5-(pyridin-3-yl)-1H-thieno[3,2-c]pyrazol-3-yl)isobutyramide], the “selectivity over CDK5” value in experiment [1] was “low selectivity”. The “selectivity over GSK-3α” value in experiment [2] is recorded as “low selectivity”. Moreover, the “selectivity over CK2” value in experiment [3] was “moderate selectivity”. The β-catenin/GADPH ratio was 0.54 in experiment [4] (5 μM), 0.64 in experiment [4] (10 μM) and 0.76 in experiment [4] (20 μM).

The values above are taken from paper PMC9225722, “Synthesis and biological evaluation of thieno[3,2-c]pyrazol-3-amine derivatives as potent glycogen synthase kinase 3β inhibitors for Alzheimer’s disease” (Journal of Enzyme Inhibition and Medicinal Chemistry, 2022).
